# Measurements: patent publication US20090298903A1, “USE OF TETRAMIC ACID DERIVATIVES FOR INSECT CONTROL” (priority 2006, published 2009)
# Tests used:
# Assay type in all cases: in vivo
# Empoasca biguttula [1] = assay: Example 12: cotton against Empoasca biguttula; conditions: for Efficacy (% H + T) 3 d: 3 d after second treatment, Henderson and Tilton, Imidacloprid (SL 100) 30, (I-4) (240 SC + 0.2% rapeseed oil methyl ester) 24, Buprofezin (WP50) 50 g a.s./ha; for Efficacy (% H + T) 7 d: 7 d after second treatment; for Efficacy (% H + T) 7 d / Efficacy (% H + T) 14 d / Efficacy (% H + T) 21 d: Imidacloprid 30, (I-4) 24, Buprofezin 50 g a.s./ha; for Efficacy (% H + T) 14 d: 14 d after second treatment; for Efficacy (% H + T) 21 d: 21 d after second treatment
# Experimental: (§1) Plots 10 m^2 in size which are planted with cotton are treated, in three replications, against Empoasca biguttula. The application is carried out with a knapsack sprayer operated with pressurized air. Here, the active substance Example (I-4) (240 SC), in a tank mix with 0.2% a.s. rapeseed oil methyl ester (500 EW), is tested against the commercial standards Imidacloprid (SL 100) and Buprofezin (WP50) at the specified application rates. Two applications are carried out at an interval of 7 days. The water application rate is 750 l/ha.
# The test is evaluated 3, 7, 14 and 21 days after the second treatment by counting the live animals. Thereafter, the efficacy is calculated in percent, using the formula of Henderson and Tilton.
# Thrips palmi [2] = assay: Example 9: cucumbers against Thrips palmi; conditions: for Efficacy (% Abbott) 3 d: 3 d after treatment 1, nymphs on leaves, Imidacloprid (100 SL) 100, (I-4) (240 SC + 0.2% rapeseed oil methyl ester) 72 g a.s./ha, two applications, interval 8 days; for Efficacy (% Abbott) 8 d: 8 d after treatment 1, Imidacloprid 100, (I-4) 72 g a.s./ha; for Efficacy (% Abbott) 11 d: 11 d after treatment 1, Imidacloprid 100, (I-4) 72 g a.s./ha; for Efficacy (% Abbott) 15 d: 15 d after treatment 1, Imidacloprid 100, (I-4) 72 g a.s./ha
# Experimental: Plots approximately 10 m^2 in size which are planted with cucumbers are treated, in three replications, against Thrips palmi. The application is carried out with a knapsack sprayer which is operated with pressurized air. Here, the active substance Example (I-4) (240 SC), in a tank mix with 0.2% a.s. rapeseed oil methyl ester (500 EW) and the commercial standard Imidacloprid (100 SL), is applied at the specified application rates. The application is carried out with a water application rate of […]. Two applications are carried out at an interval of 8 days.
# The test is evaluated 3, 8, 11 and 15 days after treatment 1 by scoring the destruction rate of the animals (nymphs) on the leaves.
# Scirtothrips dorsalis = assay: Example 10: tea plants against Scirtothrips dorsalis; conditions: 7 d after treatment, nymphs, Ethiprole (SC10) 0.005, (I-4) (100 OD) 0.01, Imidacloprid (50 WG) 0.005 % a.s.
# Experimental: Plots approx. 5 m^2 in size which are planted with tea plants cv. “Yabukita” which are approximately 18 years old are treated, in three replications, against Scirtothrips dorsalis. Here, the active substance Example (I-4) (100 OD) is tested, at the specified application rates, against the commercial standards Ethiprole (SC10 flowable) and Imidacloprid (50 WG). The application is carried out with a sprayer which is operated with pressurized air. The water application rate is 4500 l/ha. The test is evaluated 7 days after the treatment by scoring the destruction rate of the nymphs and the plants.
# Lygus spinolai = assay: Example 1A: field test on tea plants against Lygus spinolai; conditions: nymphs on shoots, Imidacloprid (10 WP) 0.005 % a.s., (I-4) (150 OD) 0.01 % a.s.; for Efficacy (% Abbott) 15 d: 15 d after treatment; for Efficacy (% Abbott) 29 d: 29 d after treatment
# Experimental: Plots approximately 4 m^2 in size which are planted with tea plants c.v. “Yabukita” are treated, in 3 replications, against Lygus spinolai. Here, the active substance Example (I-4) (150 OD) is tested at the specified application rate against the commercial standard Imidacloprid (10 WP) at the specified application rate. The application is effected with an engine-driven knapsack sprayer. Here, the treatment is carried out with a water application rate of 10 000 l/ha.
# The test is evaluated 15 and 29 days after the treatment by determining the destruction of the nymphs on the shoots.
# [3] = system: olive fruit fly (Dacus oleae); assay: Example 22B: laboratory experiment, olives against olive fruit fly; conditions: olives treated three days after oviposition; Imidacloprid (200 SL) 0.01 %, (I-4) (100 OD) 0.02 %, Fenthion (500 EC) 0.05 %; untreated 84.4
# Experimental: In a laboratory experiment, 40 olives are treated, in four replications, against the olive fruit fly (Dacus oleae) three days after oviposition. Here, the active substance (I-4) (100 OD) and the commercial standards Fenthion (500 EC) and Imidacloprid (200 SL) are tested at the specified application rates.
# The test is evaluated 14 days after oviposition by counting the number of feeding tunnels (larval development completed), while the absence of such feeding tunnels indicates the efficacy against the larvae.
# Thrips palmi [4] = assay: Example 7: aubergines against Thrips palmi; conditions: for Efficacy (% Abbott) 7 d: 7 d after the second application, 20 leaves, Imidacloprid (100 SL) 0.0151 % a.s., (I-4) (+ 0.2% rapeseed oil methyl ester) 0.0096 % a.s.; for Efficacy (% Abbott) 13 d: 13 d after the second application; for Efficacy (% Abbott) 13 d / Efficacy (% Abbott) 21 d: Imidacloprid 0.0151 % a.s., (I-4) 0.0096 % a.s.; for Efficacy (% Abbott) 21 d: 21 d after the second application
# Experimental: Plots approximately 16.5 m^2 in size which are planted with aubergines are treated, in three replications, against Thrips palmi. Here, the active substance Example (I-4) and the commercial standard Imidacloprid (100 SL) is applied at the specified application rates, using a knapsack sprayer which is operated with compressed air. The water application rate is 750 l/ha. In the case of Example (I-4), 0.2% a.s. rapeseed oil methyl ester (500 EW) is added to the spray mixture. Three applications are carried out at intervals of 7 and 14 days, respectively.
# The destruction rate in percent is determined on in each case 20 leaves. The following results are obtained 7, 13 and 21 days after the second application: […]
# Empoasca biguttula [5] = assay: Example 16: aubergines against Empoasca biguttula; conditions: for Efficacy (% Abott) 2 d: 2 d after first treatment, nymphs, Imidacloprid (SL 100) 30, (I-4) (150 OD) 50, Profenofos (500 EC) 500 g a.s./ha, two applications, interval 7 days; for Efficacy (% Abott) 6 d: 6 d after first treatment; for Efficacy (% Abott) 6 d / Efficacy (% Abott) 13 d: Imidacloprid 30, (I-4) 50, Profenofos 500 g a.s./ha; for Efficacy (% Abott) 13 d: 13 d after first treatment
# Experimental: as §1, with “aubergines” for “cotton”, “sprayer which is” for “sprayer”, “(150 OD)” for “(240 SC), in a tank mix with 0.2% a.s. rapeseed oil methyl ester (500 EW),”, “Profenofos (500 EC)” for “Buprofezin (WP50)”
# The test is evaluated 2, 6 and 13 days after the first treatment by scoring the destruction rates of the animals (nymphs) on the plants.
SMILES,Efficacy (% H + T) 3 d (Empoasca biguttula [1]) [% H + T],Efficacy (% H + T) 7 d (Empoasca biguttula [1]) [% H + T],Efficacy (% H + T) 14 d (Empoasca biguttula [1]) [% H + T],Efficacy (% H + T) 21 d (Empoasca biguttula [1]) [% H + T],Efficacy (% Abbott) 3 d (Thrips palmi [2]) [% Abbott],Efficacy (% Abbott) 8 d (Thrips palmi [2]) [% Abbott],Efficacy (% Abbott) 11 d (Thrips palmi [2]) [% Abbott],Efficacy (% Abbott) 15 d (Thrips palmi [2]) [% Abbott],Efficacy (% Abbott) 7 d (Scirtothrips dorsalis) [% Abbott],Efficacy (% Abbott) 15 d (Lygus spinolai) [% Abbott],Efficacy (% Abbott) 29 d (Lygus spinolai) [% Abbott],Number of feeding tunnels (%) 14 days after oviposition [3] [%],Efficacy (% Abbott) 7 d (Thrips palmi [4]) [% Abbott],Efficacy (% Abbott) 13 d (Thrips palmi [4]) [% Abbott],Efficacy (% Abbott) 21 d (Thrips palmi [4]) [% Abbott],Efficacy (% Abott) 2 d (Empoasca biguttula [5]) [% Abott],Efficacy (% Abott) 6 d (Empoasca biguttula [5]) [% Abott],Efficacy (% Abott) 13 d (Empoasca biguttula [5]) [% Abott]
CCOC(=O)OC1=C(c2cc(C)ccc2C)C(=O)N[C@]12CC[C@@H](OC)CC2 [Example (I-4)],92.1,92.9,84.4,72.6,64.5,91.0,80.4,70.1,100,92.9,100,3.1,84,88,78,52.4,56.0,66.7
O=[N+]([O-])NC1=NCCN1Cc1ccc(Cl)nc1 [Imidacloprid],97.3,99.6,95.6,72.5,85.3,85.5,91.7,77.1,44.4,35.7,48.1,11.9,72,68,24,38.1,71.6,58.7
